Patent US20240150302A1, “6-METHYLURACIL DERIVATIVES WITH ANTICHOLINESTERASE ACTIVITY AND THEIR USE” (priority 2021, published 2024)

Tests used:
[1] = system: transgenic mice of the B6C3-Tg(APP695)85Dbo Tg(PSENI)85Dbo genotype; experiment: Number of amyloid plaques in the cortex, Thioflavin S staining of brain sections; format: in vivo; settings: administered orally
Description: The line was purchased at The Jackson Laboratory (USA) and kept in the “Pushchino” nursery for laboratory animals Pushchino, Moscow Region). At the beginning of the research, the age of the transgenic mice was 9 months.
(§1) An equivalent amount of water (Water (Tg+)) was orally administered to control groups of transgenic mice.
Amyloid-beta deposits were evaluated after sacrifice on mouse brain sections (20 μm) using the Thioflavin S fluorescent dye and the Olympus BX51W1 fluorescence microscope, by the method described in the article [http://library.med.utah.edu/WebPath/histhtml/manuals/manuals.html].
The line was purchased at The Jackson Laboratory (USA) and kept in the “Pushchino” nursery for laboratory animals Pushchino, Moscow Region). At the beginning of the research, the age of the transgenic mice was 8 months.
as §1

[2] = system: mice of the CD-1 line; experiment: General toxic effect (LD50) in mice; settings: for LD50 (in mice, i.p.): intraperitoneal; for LD50 (in mice, p.o.): oral; for Times less toxic than donepezil hydrochloride, oral: ratio of LD50, administered orally; for Times less toxic than donepezil hydrochloride, intraperitoneal / Times less toxic than the free base: ratio of LD50, intraperitoneal
Description: Ed. A. N. Mironova] on mice of the CD-1 line (“Puschino” Nursery, Moscow Region), both males and females, weighing 19.0±2.0 g, kept on a standard diet in the day/night lighting regimen (12 hours) at 22° C.

[3] = system: transgenic mice with genotype B6C3-Tg(APP695)85Dbo Tg(PSENI)85Dbo; experiment: "Rewarded alternation" test in a T-maze, genetic model of Alzheimer's disease; format: in vivo; settings: administered orally, compared with healthy animals
Text: At the beginning of the research, the age of the transgenic mice was 9 months.
At the beginning of the research, the age of the transgenic mice was 8 months.

[4] = Solubility in water and organic solvents; format: physicochemical
[5] = system: transgenic mice of the B6C3-Tg(APP695)85Dbo Tg(PSENI)85Dbo genotype; settings: 5 mg/kg daily intraperitoneal, RU patent No. 2565756; cited from earlier work
[6] = system: mice of the CD-1 line; settings: in mice, i.p.; prior-art free base; cited from earlier work

SMILES | Effect on the number of amyloid plaques in the cortex [1] | LD50 (in mice, i.p.) [2] [mg/kg] | LD50 (in mice, p.o.) [2] [mg/kg] | Times less toxic than donepezil hydrochloride, oral [2] [times] | Times less toxic than donepezil hydrochloride, intraperitoneal [2] [times] | Times less toxic than the free base [2] [times] | Correction of memory impairment [3] | Solubility [4] | Reduction of the number of amyloid deposits in the cerebral cortex [5] [%] | LD50 (background statement) [6] [mg/kg]
CCN(CCCCCn1c(C)cc(=O)n(CCCCCN(CC)Cc2ccccc2[N+](=O)[O-])c1=O)Cc1ccccc1[N+](=O)[O-].Cl.Cl [Compound (2), 1,3-bis[5-(ortho-nitrobenzylethylamino)pentyl]-6-methyluracil dihydrochloride] | more effective than donepezil hydrochloride for preventing the formation of amyloid plaques | 150 | 290 | 6 | 30 | ~3 | effective for correcting memory impairment | soluble in dimethylformamide, dimethyl sulfoxide, ethyl alcohol, and water | – | –
Br.Br.CCN(CCCCCn1c(C)cc(=O)n(CCCCCN(CC)Cc2ccccc2[N+](=O)[O-])c1=O)Cc1ccccc1[N+](=O)[O-] [Compound (1), 1,3-bis[5-(ortho-nitrobenzylethylamino)pentyl]-6-methyluracil dihydrobromide] | more effective product for prevention of the formation of amyloid plaque than donepezil hydrochloride | 199 | 520 | 12 | 40 | ~4 | effective for correction of memory impairment | soluble in chloroform, dimethylformamide, dimethyl sulfoxide, ethyl alcohol, and water | – | –
CCN(CCCCCn1c(C)cc(=O)n(CCCCCN(CC)Cc2ccccc2[N+](=O)[O-])c1=O)Cc1ccccc1[N+](=O)[O-] [1,3-bis[5-(ortho-nitrobenzyl-ethylamino)pentyl-1]-6-methyluracil, reference compound] | – | 51 | – | – | – | – | – | insoluble in water | 50 | 51.48
